From patent publication US20260022143A1, “Cyclic Peptide Inhibitors of IL-23” (JANSSEN PHARMACEUTICA NV, priority 2022, published 2026)
Starred links: 1 amine or outer side, 2 acyl side, 3 side chain; linkers in the order of their positions; H or OH if unused. Positions of bridges follow the written chain, without caps; N, C: chain ends. Non-standard residues stand in square brackets, D forms with d. Residues, ends and D or L forms follow the SMILES beside them. Groups on a side chain read outwards from the residue. *: point of attachment. Trp(7-(3-AcNH-Ph)) = CC(=O)Nc1cccc(-c2cccc3c(C[C@H](N)C(=O)O)c[nH]c23)c1; Me3N+(CH2)2O(CH2)2O(CH2)2CO = C[N+](C)(C)CCOCCOCCC(=O)*; CH2CH2OCH2CH2OCH2CH2NMe3+ = C[N+](C)(C)CCOCCOCC*; Trp(7-Me) = Cc1cccc2c(C[C@H](N)C(=O)O)c[nH]c12; dLys(Me3) = C[N+](C)(C)CCCC[C@@H](N)C(=O)O; Lys(Me3) = C[N+](C)(C)CCCC[C@H](N)C(=O)O; γGlu = O=C(O)[C@H](CCC(=O)[*:2])N[*:1]; 2Nal = N[C@@H](Cc1ccc2ccccc2c1)C(=O)O; AEF = NCCOc1ccc(C[C@H](N)C(=O)O)cc1; PEG6 = NCCOCCOCCOCCOCCOCCOCCC(=O)O; 3Pal = N[C@@H](Cc1cccnc1)C(=O)O; Lys(Me) = CNCCCC[C@H](N)C(=O)O; X7 = COCCOCCOCCOCCOCCOCCC(=O)*; NMeK = CN[C@@H](CCCCN)C(=O)O; Pen = CC(C)(S)[C@H](N)C(=O)O; Lauroyl = CCCCCCCCCCCC(=O)*; Thp = NC1(C(=O)O)CCOCC1; X3 = C[N+](C)(C)CCCCC*; AEEA = NCCOCCOCC(=O)O; Aib = CC(C)(N)C(=O)O; Sar = CNCC(=O)O

How the values were obtained:
IL-23R = target: T1, IL-23R (Homo sapiens, UniProt Q5VWK5); experiment: IL23R Reporter Assay; type: cell-based; settings: HEK293 cells containing IL-23R, IL-12RP1 and STAT-inducible firefly luciferase reporter; 10 ng/mL IL-23 (EC90); 5 h at 37° C.; read-out: IL23R Reporter Assay
T1 construct: host or cells: HEK293
T1 sequence (Q5VWK5 24-629): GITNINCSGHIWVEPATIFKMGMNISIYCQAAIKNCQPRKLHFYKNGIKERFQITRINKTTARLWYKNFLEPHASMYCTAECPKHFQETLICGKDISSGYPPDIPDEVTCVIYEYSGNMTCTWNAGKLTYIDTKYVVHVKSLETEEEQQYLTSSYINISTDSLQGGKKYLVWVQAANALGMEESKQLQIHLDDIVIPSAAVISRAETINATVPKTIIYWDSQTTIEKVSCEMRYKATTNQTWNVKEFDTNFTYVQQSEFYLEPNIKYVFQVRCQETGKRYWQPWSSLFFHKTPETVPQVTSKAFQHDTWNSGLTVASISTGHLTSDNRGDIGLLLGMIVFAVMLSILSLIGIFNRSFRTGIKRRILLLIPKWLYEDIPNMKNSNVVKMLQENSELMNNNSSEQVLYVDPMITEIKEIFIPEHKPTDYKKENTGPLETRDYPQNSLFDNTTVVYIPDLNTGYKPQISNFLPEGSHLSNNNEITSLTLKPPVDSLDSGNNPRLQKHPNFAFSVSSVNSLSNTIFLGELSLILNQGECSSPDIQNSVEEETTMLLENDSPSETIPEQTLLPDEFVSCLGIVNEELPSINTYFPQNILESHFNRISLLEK

[1] = Exposed Polar Surface Area (EPSA); type: physicochemical; settings: SFC on Chirex 3014 column; sample 1 mM DMSO stock; read-out: EPSA
Outline: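 Polarity descriptor in Å² derived from retention time using 8 calibration standards re-run every 20 compounds. Duplicate injections of 1 mM DMSO stock; linear 5–60% modifier gradient (20 mM ammonium formate in MeOH) with CO2 at 4 mL/min, 35 °C, on a Chirex 3014 column.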

| SMILES | IC50 (IL-23R) | EPSA [1] |
| --- | --- | --- |
| CC(=O)N(C)CCCC[C@@H]1NC(=O)[C@H](Cc2c[nH]c3c(C)cccc23)NC(=O)[C@H]([C@@H](C)O)NC(=O)[C@H](CC(=O)N(C)C)NC(=O)[C@@H](NC(=O)CCOCCOCC[N+](C)(C)C)C(C)(C)SSC(C)(C)[C@@H](C(=O)N[C@@H](Cc2ccc(OCCOCCOCC[N+](C)(C)C)cc2)C(=O)N[C@@H](Cc2ccc3ccccc3c2)C(=O)NC2(C(=O)N[C@@H](CCC(=O)O)C(=O)N[C@@H](CC(N)=O)C(=O)N[C@@H](Cc3cccnc3)C(=O)N(C)CC(=O)N(C)C)CCOCC2)NC1=O [compound 184, cPEG3aCO-Pen(3)-N(N(Me)2)-T-7MeW-K(NMeAc)-Pen(3)-APEG3F-2Nal-THP-E-N-3Pya-Sar-CON(Me)2] ({Me3N+(CH2)2O(CH2)2O(CH2)2CO}-[Pen]D(NMe2)T[Trp(7-Me)][Lys(Me)](Ac)[Pen]Y(CH2CH2OCH2CH2OCH2CH2NMe3+)[2Nal][Thp]EN[3Pal][Sar]-NMe2; disulfide 1-6) | 3.4 nM | 142 A^2 |
| CCCCCCCCCCCC(=O)N[C@@H](CCC(=O)NCCOCCOCC(=O)NCCOCCOCC(=O)NCCCC[C@H](NC(=O)C1(NC(=O)[C@H](Cc2ccc3ccccc3c2)NC(=O)[C@H](Cc2ccc(OCCCCC[N+](C)(C)C)cc2)NC(=O)[C@H]2NC(=O)[C@H](CCCCNC(C)=O)NC(=O)[C@H](Cc3c[nH]c4c(C)cccc34)NC(=O)[C@H]([C@@H](C)O)NC(=O)[C@H](CC(N)=O)NC(=O)[C@@H](NC(=O)CCOCCOCC[N+](C)(C)C)C(C)(C)SSC2(C)C)CCOCC1)C(=O)N[C@@H](CC(N)=O)C(=O)N[C@@H](Cc1cccnc1)C(=O)N(C)[C@@H](CCCCNC(=O)COCCOCCNC(=O)COCCOCCNC(=O)CC[C@H](NC(=O)CCCCCCCCCCC)C(=O)O)C(N)=O)C(=O)O [compound 349, cPEG3aCO-Pen(3)-N-T-7MeW-K(Ac)-Pen(3)-TMAPF-2Nal-THP-K(PEG2PEG2gEC12)-N-3Pya-NMeK(PEG2PEG2gEC12)-CONH2] ({Me3N+(CH2)2O(CH2)2O(CH2)2CO}-[Pen]NT[Trp(7-Me)]K(Ac)[Pen]Y(X3)[2Nal][Thp]K([AEEA-AEEA-γGlu-Lauroyl])N[3Pal][NMeK]([AEEA-AEEA-γGlu-Lauroyl])-NH2; disulfide 1-6) | 220 nM | 179 A^2 |
| CCCCCCCCCCCC(=O)N[C@@H](CCC(=O)NCCOCCOCC(=O)NCCOCCOCC(=O)NCCOCCOCC(=O)NCCOCCOCC(=O)NCCCC[C@@H](NC(=O)CCOCCOCC[N+](C)(C)C)C(=O)N[C@@H]1C(=O)N[C@@H](CC(=O)N(C)C)C(=O)N[C@@H]([C@@H](C)O)C(=O)N[C@@H](Cc2c[nH]c3c(C)cccc23)C(=O)N[C@@H](CCCCNC(C)=O)C(=O)N[C@H](C(=O)N[C@@H](Cc2ccc(OCCCCC[N+](C)(C)C)cc2)C(=O)N[C@@H](Cc2ccc3ccccc3c2)C(=O)NC2(C(=O)N[C@@H](CCCCN(C)C(C)=O)C(=O)N[C@@H](CC(N)=O)C(=O)N[C@@H](Cc3cccnc3)C(=O)N(C)[C@@H](CCCCNC(=O)COCCOCCNC(=O)COCCOCCNC(=O)COCCOCCNC(=O)COCCOCCNC(=O)CC[C@H](NC(=O)CCCCCCCCCCC)C(=O)O)C(N)=O)CCOCC2)C(C)(C)SSC1(C)C)C(=O)O [compound 404, cPEG3aCO-k(PEG2PEG2PEG2PEG2gEC12)-Pen(3)-N(N(Me)2)-T-7MeW-K(Ac)-Pen(3)-TMAPF-2Nal-THP-K(NMeac)-N-3Pya-NMeK(PEG2PEG2PEG2PEG2gEC12)-CONH2] ({Me3N+(CH2)2O(CH2)2O(CH2)2CO}-[dK]([AEEA-AEEA-AEEA-AEEA-γGlu-Lauroyl])[Pen]D(NMe2)T[Trp(7-Me)]K(Ac)[Pen]Y(X3)[2Nal][Thp][Lys(Me)](Ac)N[3Pal][NMeK]([AEEA-AEEA-AEEA-AEEA-γGlu-Lauroyl])-NH2; disulfide 2-7) | 31 nM | 196 A^2 |
| COCCOCCOCCOCCOCCOCCC(=O)N[C@@H]1C(=O)N[C@@H](CC(N)=O)C(=O)N[C@@H]([C@@H](C)O)C(=O)N[C@@H](Cc2c[nH]c3c(C)cccc23)C(=O)N[C@@H](CCCCNC(C)=O)C(=O)N[C@H](C(=O)N[C@@H](Cc2ccc(OCCN)cc2)C(=O)N[C@@H](Cc2ccc3ccccc3c2)C(=O)NC2(C(=O)N[C@@H](CCCCNC(C)=O)C(=O)N[C@@H](CC(N)=O)C(=O)N[C@@H](Cc3cccnc3)C(=O)N(C)CC(N)=O)CCOCC2)C(C)(C)SSC1(C)C [compound 64] (X7-[Pen]NT[Trp(7-Me)]K(Ac)[Pen][AEF][2Nal][Thp]K(Ac)N[3Pal][Sar]-NH2; disulfide 1-6 (inferred)) | 4.9 nM | 160 A^2 |
| CC(=O)N(C)CCCC[C@H](NC(=O)C1(NC(=O)[C@H](Cc2ccc3ccccc3c2)NC(=O)[C@H](Cc2ccc(OCCOCCOCC[N+](C)(C)C)cc2)NC(=O)[C@H]2NC(=O)[C@H](CCCCNC(=O)CCOCCOCC[N+](C)(C)C)NC(=O)[C@H](Cc3c[nH]c4c(C)cccc34)NC(=O)[C@H]([C@@H](C)O)NC(=O)[C@H](CC(=O)N(C)C)NC(=O)[C@@H](NC(=O)CCOCCOCC[N+](C)(C)C)C(C)(C)SSC2(C)C)CCOCC1)C(=O)N[C@@H](CC(N)=O)C(=O)N[C@@H](Cc1cccnc1)C(=O)N(C)CC(=O)N(C)C [compound 544, cPEG3aCO-Pen(3)-N(N(Me)2)-T-7MeW-K(cPEG3aCO)-Pen(3)-APEG3F-2Nal-THP-K(NMeAc)-N-3Pya-Sar-CON(Me)2] ({Me3N+(CH2)2O(CH2)2O(CH2)2CO}-[Pen]D(NMe2)T[Trp(7-Me)]K(Me3N+(CH2)2O(CH2)2O(CH2)2CO)[Pen]Y(CH2CH2OCH2CH2OCH2CH2NMe3+)[2Nal][Thp][Lys(Me)](Ac)N[3Pal][Sar]-NMe2; disulfide 1-6) | 2 nM | 157 A^2 |
| Cc1cccc2c(C[C@@H]3NC(=O)[C@H]([C@@H](C)O)NC(=O)[C@H](CC(=O)N(C)C)NC(=O)[C@@H](NC(=O)CCOCCOCC[N+](C)(C)C)C(C)(C)SSC(C)(C)[C@@H](C(=O)N[C@@H](Cc4ccc(OCCN)cc4)C(=O)N[C@@H](Cc4ccc5ccccc5c4)C(=O)NC4(C(=O)NC(C)(C)C(=O)N[C@@H](CC(N)=O)C(=O)N[C@@H](Cc5cccnc5)C(=O)N(C)CC(=O)N(C)C)CCOCC4)NC(=O)C(C)(C)NC3=O)c[nH]c12 [compound 142, cPEG3aCO-Pen(3)-N(N(Me)2)-T-7MeW-AIB-Pen(3)-AEF-2Nal-THP-AIB-N-3Pya-Sar-CON(Me)2] ({Me3N+(CH2)2O(CH2)2O(CH2)2CO}-[Pen]D(NMe2)T[Trp(7-Me)][Aib][Pen][AEF][2Nal][Thp][Aib]N[3Pal][Sar]-NMe2; disulfide 1-6) | 6.6 nM | 166 A^2 |
| CC(=O)N(C)CCCC[C@@H]1NC(=O)[C@H](Cc2c[nH]c3c(C)cccc23)NC(=O)[C@H]([C@@H](C)O)NC(=O)[C@H](CCCC[N+](C)(C)C)NC(=O)[C@@H](NC(=O)CCOCCOCC[N+](C)(C)C)C(C)(C)SSC(C)(C)[C@@H](C(=O)N[C@@H](Cc2ccc(OCCCCC[N+](C)(C)C)cc2)C(=O)N[C@@H](Cc2ccc3ccccc3c2)C(=O)NC2(C(=O)N[C@@H](CCCCN(C)C(C)=O)C(=O)N[C@@H](CC(N)=O)C(=O)N[C@@H](Cc3cccnc3)C(=O)N(C)CC(=O)N(C)C)CCOCC2)NC1=O [compound 328, cPEG3aCO-Pen(3)-K(Me)3-T-7MeW-K(NMeAc)-Pen(3)-TMAPF-2Nal-THP-K(NMeAc)-N-3Pya-Sar-CON(Me)2] ({Me3N+(CH2)2O(CH2)2O(CH2)2CO}-[Pen][Lys(Me3)]T[Trp(7-Me)][Lys(Me)](Ac)[Pen]Y(X3)[2Nal][Thp][Lys(Me)](Ac)N[3Pal][Sar]-NMe2; disulfide 1-6) | 1.2 nM | 159 A^2 |
| CC(=O)NCCCC[C@@H]1NC(=O)[C@H](Cc2c[nH]c3c(-c4cccc(NC(C)=O)c4)cccc23)NC(=O)[C@H]([C@@H](C)O)NC(=O)[C@H](CC(N)=O)NC(=O)[C@@H](NC(=O)[C@@H](CCCC[N+](C)(C)C)NC(C)=O)C(C)(C)SSC(C)(C)[C@@H](C(=O)N[C@@H](Cc2ccc(OCCN)cc2)C(=O)N[C@@H](Cc2ccc3ccccc3c2)C(=O)NC2(C(=O)N[C@@H](CCC(=O)O)C(=O)N[C@@H](CC(N)=O)C(=O)N[C@@H](Cc3cccnc3)C(=O)N(C)CC(N)=O)CCOCC2)NC1=O [compound 461] (Ac-[dLys(Me3)][Pen]NT[Trp(7-(3-AcNH-Ph))]K(Ac)[Pen][AEF][2Nal][Thp]EN[3Pal][Sar]-NH2; disulfide 2-7 (inferred)) | 1.4 nM | 192 A^2 |
| CC(=O)NCCCC[C@@H]1NC(=O)[C@H](Cc2c[nH]c3c(C)cccc23)NC(=O)[C@H]([C@@H](C)O)NC(=O)[C@H](CC(N)=O)NC(=O)[C@@H](NC(=O)[C@@H](CCCCNC(=O)CCOCCOCCOCCOCCOCCOCCNC(C)=O)NC(C)=O)C(C)(C)SSC(C)(C)[C@@H](C(=O)N[C@@H](Cc2ccc(OCCN)cc2)C(=O)N[C@@H](Cc2ccc3ccccc3c2)C(=O)NC2(C(=O)N[C@@H](CCCCNC(C)=O)C(=O)N[C@@H](CC(N)=O)C(=O)N[C@@H](Cc3cccnc3)C(=O)N(C)CC(N)=O)CCOCC2)NC1=O [compound 39] (Ac-[dK]([PEG6-Ac])[Pen]NT[Trp(7-Me)]K(Ac)[Pen][AEF][2Nal][Thp]K(Ac)N[3Pal][Sar]-NH2; disulfide 2-7 (inferred)) | 5.5 nM | 158 A^2 |
